Drawing on patent US5747528A, “Chroman derivatives as anti-oxidants” (Warner-Lambert Company, priority 1997, dated 1998), this text covers IC50 for 1 compound.

For this experiment, the system named is VCAM-1. As to the kind of experiment: VCAM-1 assay: immunoassay of cell-surface VCAM-1 expression on TNF-stimulated human aortic endothelial cells (HAEC). It is filed as cell-based. The conditions noted are these: TNF 250 U/mL, overnight (18 hours). An excerpt: CELL CULTURE: Human aortic endothelial cells (CellSystem) Media: 50:50 mix of CS 3.0 (CellSystem) and MCDB-107 (Sigma) 10% fetal bovine serum (FBS) (Hyclone) Tissue culture plates (24 well) (Costar) TNF: recombinant Tumor necrosis factor-alpha (Genzyme)
IMMUNOASSAYS: 10% buffered Formalin (Baxter) Dulbecco's modified eagle medium (DMEM), Phosphate buffered saline (PBS) (Gibco) Bovine serum albumin (BSA) (Sigma) Anti-ICAM-1 antibody (R&D System, BBA#3) Sheep anti-mouse IgG (Cappel, #55558) Horseradish peroxidase (HRP)-KIT (Bio-Rad, #172-1064) Anti-VCAM-1 antibody (R&D System, BBA#6) Goat anti-mouse IgG+IgM, F(ab)2 fragments, biotin conjugated (Jackson Immuno Research Lab, #115-066-068) 125-I-Streptavidin (Amersham, #IM.236)
Human aortic endothelial cells (HAEC) were seeded at 100,000 cells/mL/well in 24 well cluster plates and placed in a 5% CO2 to […] humidified incubator at 37° C. […]
The cells were incubated with anti-VCAM-1 monoclonal antibody (1.25 μg/mL) for 2 hours at 37° C. […] Cells were washed again (4 times) and digested overnight with the addition of 500 μL of 1N NaOH and radioactivity contained in the digests counted. Cell-surface VCAM-1 expression is shown as radioactivity bound to the cell surface under various conditions.

What is called IC50 is the concentration needed to halve the response being measured. `Cc1c(C)c2c(c(C)c1O)CCC(C)(COc1ccc(NC(=S)NC(c3ccccc3)c3ccccc3)cc1)O2` (stereo not shown) [Example 1, 1-Benzhydryl-3-[4-(6-hydroxy-2,5,7,8-tetramethyl-Chroman-2-ylmethoxy)-phenyl]-thiourea] displayed a concentration for half-maximal inhibition (IC50) of 23.1 µM.
